Assay results reported in patent publication US6248750A, “9-hydroxyamino tetrahydroacridine and related compounds” (Hoechst Roussel Pharmaceuticals, priority 2000, dated 2001).
Structures can show the parent of a compound that is named as a salt. Where two headings read alike, the source gives them in different places.

Legend:
acetylcholinesterase = acetylcholinesterase (Homo sapiens, UniProt P22303); assay: biochemical
mice = assay: Dark Avoidance Assay (reversal of scopolamine induced memory deficit); format: in vivo; details: retest after 24 hours
Description: In this assay mice are tested for their ability to remember an unpleasant stimulus for a period of 24 hours. A mouse is placed in a chamber that contains a dark compartment; a srong incandescent light drives it to the dark compartment, where an electric shock is administered through metal plates on the floor. The animal is removed from the testing apparatus and tested again, 24 hours later, for the ability to remember the electric shock.
If scopolamine, an anticholinergic that is known to cause memory impairment, is administered before an animal's initial exposure to the test chamber, the animal re-enters the dark compartment shortly after being placed in the test chamber 24 hours later.

acetylcholinesterase, sequence (P22303 32-614): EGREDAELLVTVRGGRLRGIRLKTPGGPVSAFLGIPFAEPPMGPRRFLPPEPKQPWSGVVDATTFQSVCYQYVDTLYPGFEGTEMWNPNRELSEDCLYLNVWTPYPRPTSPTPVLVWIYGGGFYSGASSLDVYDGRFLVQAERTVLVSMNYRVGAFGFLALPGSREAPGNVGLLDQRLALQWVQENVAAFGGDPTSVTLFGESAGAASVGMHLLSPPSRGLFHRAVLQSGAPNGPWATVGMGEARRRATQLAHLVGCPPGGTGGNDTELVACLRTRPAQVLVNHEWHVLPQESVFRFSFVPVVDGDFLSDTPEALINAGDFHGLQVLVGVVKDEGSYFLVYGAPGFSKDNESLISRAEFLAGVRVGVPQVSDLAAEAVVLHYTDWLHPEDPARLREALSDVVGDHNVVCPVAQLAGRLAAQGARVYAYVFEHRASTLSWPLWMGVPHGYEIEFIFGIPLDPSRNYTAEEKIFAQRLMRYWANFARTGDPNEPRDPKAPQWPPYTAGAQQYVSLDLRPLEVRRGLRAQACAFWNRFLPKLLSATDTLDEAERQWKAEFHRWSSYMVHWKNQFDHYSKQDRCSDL

| SMILES | IC50 (acetylcholinesterase) | % Animals with Scopolamine Induced memory deficit reversed (mice; dose 1.0 mg/kg s.c.) | also measured |
| --- | --- | --- | --- |
| c1ccc(CONc2c3c(nc4ccccc24)CCCC3)cc1 [N-Benzyloxy-1,2,3,4-tetrahydro-9-acridinamine] | 6.1 µM | – | – |
| Fc1ccccc1CONc1c2c(nc3ccccc13)CCCC2 [N-(2-Fluorobenzyloxy)-1,2,3,4-tetrahydro-9-acridinamine] | 5.2 µM | – | – |
| CONc1c2c(nc3ccccc13)CCCC2.Cl [N-Methoxy-1,2,3,4-tetrahydro-9-acridinamine hydrochloride] | 0.51 µM | 27% | – |
| CON(C)c1c2c(nc3ccccc13)CCCC2 [N-Methoxy-N-methyl-1,2,3,4-tetrahydro-9-acridinamnine hydrochloride] | – | 27% | IC50 (acetylcholinesterase; read-out: Cholinesterase Inhibition IC50): 27 µM |
| CCCONc1c2c(nc3ccccc13)CCCC2 [N-Propyloxy-1,2,3,4-tetrahydro-9-acridinamine, oxalate, hemihydrate] | – | – | IC50 (acetylcholinesterase; read-out: Cholinesterase Inhibition IC50, photometric method of Ellman et al.): 0.83 µM |
| Nc1c2c(nc3ccccc13)CCCC2 [9-Amino-1,2,3,4-tetrahydroacridine, reference compound] | – | – | % Animals with Scopolamine Induced memory deficit reversed (mice; dose 0.31 mg/kg s.c.): 20% |
